# Measured values taken from US20250171438A1 (Agios Pharmaceuticals, Inc., priority 2022, published 2025).
# Target: T1, human PAH with the R408W mutation (Homo sapiens, UniProt P00439, R408W)
# T1 construct: expressed in transfected cells
# T1 sequence (P00439 1-452 R408W): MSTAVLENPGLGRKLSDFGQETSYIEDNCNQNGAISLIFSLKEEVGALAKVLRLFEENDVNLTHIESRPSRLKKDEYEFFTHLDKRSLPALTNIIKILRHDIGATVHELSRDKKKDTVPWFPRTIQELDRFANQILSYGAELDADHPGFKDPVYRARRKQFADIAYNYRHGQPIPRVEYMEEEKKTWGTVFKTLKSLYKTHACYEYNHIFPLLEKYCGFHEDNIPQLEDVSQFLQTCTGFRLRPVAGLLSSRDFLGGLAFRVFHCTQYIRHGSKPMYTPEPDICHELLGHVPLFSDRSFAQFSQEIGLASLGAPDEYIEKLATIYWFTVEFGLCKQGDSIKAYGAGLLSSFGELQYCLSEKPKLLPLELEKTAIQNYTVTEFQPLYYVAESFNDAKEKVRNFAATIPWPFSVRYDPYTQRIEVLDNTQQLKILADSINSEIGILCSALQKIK
# Assay: Cell Based Phenylalanine Flux Assay
# Details: A375 cells expressing human R408W PAH; 24 hrs with compound; 13C-Tyrosine by LC-MS; average where tested multiple times; read-out: AC50
row,SMILES,AC50 [µM]
1,CC(C)(O)Cn1ncc(C(=O)N2CCc3[nH]cnc3C2c2nc3c(F)cccc3s2)c1C(F)F (stereo not shown) [listing 1 of 2 here],> 5
2,CC(C)(O)Cn1ncc(C(=O)N2CCc3[nH]cnc3C2c2nc3c(F)cccc3s2)c1Cl (stereo not shown) [listing 1 of 2 here],> 5
3,CC(C)(O)c1cc(C(=O)N2CCc3[nH]cnc3C2c2nc3ccccc3s2)no1 (stereo not shown) [listing 1 of 2 here],> 5
4,CC(C)(O)c1nc(C(=O)N2CCc3[nH]cnc3C2c2nc3c(F)cccc3s2)no1 (stereo not shown) [listing 1 of 2 here],> 5
5,Cn1nc(C(F)(F)F)nc1C(=O)N1CCc2[nH]cnc2C1c1nc2ccccc2s1 (stereo not shown),1 to 5
6,O=C(c1ccn[nH]1)N1CCc2[nH]cnc2C1c1nc2ccccc2s1 (stereo not shown) [listing 1 of 2 here],> 5
7,Cc1nc(C(=O)N2CCc3[nH]cnc3C2c2nc3ccccc3s2)n(C)n1 (stereo not shown),> 5
8,Cn1ncc(C(=O)N2CCc3[nH]cnc3C2c2nc3ccccc3s2)n1 (stereo not shown),> 5
9,Cn1nc(C2CC2)nc1C(=O)N1CCc2[nH]cnc2C1c1nc2c(F)cccc2s1 (stereo not shown),> 5
10,CC(C)(O)c1cc(C(=O)N2CCc3[nH]cnc3C2c2nc3ccccc3s2)sn1 (stereo not shown),> 5
11,Cn1nc(CC#N)nc1C(=O)N1CCc2[nH]cnc2C1c1nc2ccccc2s1 (stereo not shown),> 5
12,CC(C)(O)c1nsc(C(=O)N2CCc3[nH]cnc3C2c2nc3c(F)cccc3s2)n1 (stereo not shown),> 5
13,CC(C)(O)c1noc(C(=O)N2CCc3[nH]cnc3C2c2nc3c(F)cccc3s2)n1 (stereo not shown),> 5
14,Cc1cccc2sc(C3c4nc[nH]c4CCN3C(=O)c3cnn(C)c3Cl)nc12 (stereo not shown),> 5
15,O=C(c1cn[nH]c1)N1CCc2nc[nH]c2C1c1nc2c(F)cccc2s1 (stereo not shown),> 5
16,Cc1nc(N2CCN(C)CC2)oc1C(=O)N1CCc2[nH]cnc2C1c1nc2c(F)cccc2s1 (stereo not shown),> 5
17,Cc1nc(N2CCOCC2)oc1C(=O)N1CCc2[nH]cnc2C1c1nc2c(F)cccc2s1 (stereo not shown),> 5
18,CNC(C)(C)c1nc(C)c(C(=O)N2CCc3[nH]cnc3C2c2nc3c(F)cccc3s2)o1 (stereo not shown),> 5
19,CC(C)(O)Cn1cc(C(=O)N2CCc3[nH]cnc3C2c2nc3c(F)cccc3s2)cn1 (stereo not shown),1 to 5
20,CC(C)(O)Cn1ncc(C(=O)N2CCc3[nH]cnc3C2c2nc3c(F)cccc3s2)c1C(F)F (stereo not shown) [listing 2 of 2 here],1 to 5
21,CC(C)(O)Cn1ncc(C(=O)N2CCc3[nH]cnc3C2c2nc3c(F)cccc3s2)c1Cl (stereo not shown) [listing 2 of 2 here],1 to 5
22,CC(C)(O)c1cc(C(=O)N2CCc3[nH]cnc3C2c2nc3ccccc3s2)no1 (stereo not shown) [listing 2 of 2 here],1 to 5
23,CC(C)(O)c1nc(C(=O)N2CCc3[nH]cnc3C2c2nc3c(F)cccc3s2)no1 (stereo not shown) [listing 2 of 2 here],1 to 5
24,Cn1cnc(C(=O)N2CCc3[nH]cnc3C2c2nc3ccccc3s2)n1 (stereo not shown),> 5
25,Cn1ccc(C(=O)N2CCc3[nH]cnc3C2c2nc3ccccc3s2)n1 (stereo not shown),1 to 5
26,O=C(c1cn[nH]c1)N1CCc2[nH]cnc2C1c1nc2ccccc2s1 (stereo not shown),1 to 5
27,O=C(c1ccn[nH]1)N1CCc2[nH]cnc2C1c1nc2ccccc2s1 (stereo not shown) [listing 2 of 2 here],1 to 5

# Next, values leading:
row,AC50 [µM],SMILES
1,> 5,CC(C)(O)c1cc(C(=O)N2CCc3[nH]cnc3C2c2nc3c(F)cccc3s2)no1 (stereo not shown) [listing 1 of 2 here]
2,> 5,CC(C)(O)c1cc(C(=O)N2CCc3[nH]cnc3C2c2nc3c(F)cccc3s2)ns1 (stereo not shown) [listing 1 of 2 here]
3,> 5,Cc1nc(C(=O)N2CCc3[nH]cnc3C2c2nc3c(F)cccc3s2)n(C)n1 (stereo not shown)
4,> 5,Cn1nc(C(C)(C)O)cc1C(=O)N1CCc2[nH]cnc2C1c1nc2c(F)cccc2s1 (stereo not shown)
5,> 5,CC(C)(O)c1cc(C(=O)N2CCc3[nH]cnc3C2c2nc3c(F)cccc3s2)sn1 (stereo not shown)
6,> 5,Cn1nc(CC#N)nc1C(=O)N1CCc2[nH]cnc2C1c1nc2c(F)cccc2s1 (stereo not shown)
7,> 5,O=C(c1cnn(CCO)c1Cl)N1CCc2[nH]cnc2C1c1nc2c(F)cccc2s1 (stereo not shown)
8,> 5,Cn1ccc(C(=O)N2CCc3[nH]cnc3C2c2nc3c(F)cccc3s2)n1 (stereo not shown)
9,> 5,Cn1nc(COC(F)(F)F)cc1C(=O)N1CCc2[nH]cnc2C1c1nc2c(F)cccc2s1 (stereo not shown)
10,> 5,O=C(c1ccn[nH]1)N1CCc2[nH]cnc2C1c1nc2c(F)cccc2s1 (stereo not shown)
11,> 5,Cn1ncc(C(=O)N2CCc3[nH]cnc3C2c2nc3c(F)cccc3s2)n1 (stereo not shown)
12,> 5,Cn1nnc(C(=O)N2CCc3[nH]cnc3C2c2nc3c(F)cccc3s2)n1 (stereo not shown)
13,> 5,[2H]C([2H])([2H])OCc1cc(C(=O)N2CCc3[nH]cnc3C2c2nc3c(F)cccc3s2)n(C)n1 (stereo not shown)
14,> 5,COCc1cc(C(=O)N2CCc3[nH]cnc3C2c2nc3c(F)cccc3s2)[nH]n1 (stereo not shown)
15,> 5,Cn1nc(C(N)=O)cc1C(=O)N1CCc2[nH]cnc2C1c1nc2c(F)cccc2s1 (stereo not shown)
16,1 to 5,CC(=O)Cn1cc(C(=O)N2CCc3[nH]cnc3C2c2nc3c(F)cccc3s2)cn1 (stereo not shown)
17,1 to 5,CC(=O)Cn1ncc(C(=O)N2CCc3[nH]cnc3C2c2nc3c(F)cccc3s2)c1Cl (stereo not shown)
18,1 to 5,CC(C)(O)c1cc(C(=O)N2CCc3[nH]cnc3C2c2nc3c(F)cccc3s2)no1 (stereo not shown) [listing 2 of 2 here]
19,1 to 5,CC(C)(O)c1cc(C(=O)N2CCc3[nH]cnc3C2c2nc3c(F)cccc3s2)ns1 (stereo not shown) [listing 2 of 2 here]
